Among the data in patent publication US20260184692A1, “HETEROCYCLIC COMPOUNDS, PREPARATION METHODS AND USES THEREOF” (InventisBio Co., Ltd., priority 2022, published 2026) are IC50 values, retold here.

The test system of the assay is OVCAR3 Cells. Briefly: OVCAR3 Cell Viability Assay (CellTiter-Glo). Format: cell-based. The note with it: Homo sapiens, OVCAR-3, 144 h, 6 days incubation, read-out: OVCAR3 CTG IC50. The procedure:
OVCAR3 Cells (ATCC, Cat #HTB-161) were seeded at a density of 2000 cells/well in a 96-well clear bottom plate (Greiner, Cat #655098) in 100 μL of complete media (RPMI1640+20% FBS+0.01 mg/mL human insulin). One hundred microliter of complete media was added into the blank well (column 1) for low control. Cells were allowed to adhere to the plate overnight in the incubator at 37° C., 5% CO2. On the following day, 0.5 μL of serially-diluted compounds were added to the cells (columns 2-10) and incubated for 6 days at 37 C, 5% CO2 (final 0.5% DMSO concentration); 0.5 μL of DMSO solution was added into the wells (column 11) for high control. Cell viability was detected according to the CellTiter-Glo Luminescent Cell Viability Assay Kit (Promega, Cat #G7573). Luminescence was recorded on the Tecan Spark plate reader. Inhibition rate (IR) of the tested compounds was determined by the following formula: IR (%)=(1−(RLUcompound−RLUlow control)/(RLUhigh control−RLUlow control))×100%. The IC50 value was calculated using the non-linear regression equation: Y=Bottom+(Top−Bottom)/(1+10^((Log IC50−X)×HillSlope)), where X is Log of compound concentration, Y is percent inhibition (IR (%)), Top and Bottom are plateaus in same units as Y.

By IC50 is commonly meant the concentration at which inhibition is half-maximal.

As to `O=C(Nc1ccc2ncn(CC(F)(F)F)c2c1)c1ccc(NS(=O)(=O)CCO)cc1N1CCC2(CC1)CC2` [Compound 2], the IC50 was < 200 nM.

Consider `Cc1cc(NC(=O)c2ccc(NS(=O)(=O)CCO)cc2N2C[C@H]3CCC[C@H]3C2)nc(N2CCC(F)(F)CC2)n1` [Compound 8], for which the IC50 is < 200 nM. Consider `Cc1cc(NC(=O)c2ccc(NS(=O)(=O)CCO)cc2N2CC3CCC(C2)O3)nc(N2CCC(F)(F)CC2)n1` [Compound 10], for which the IC50 lay within 200 to 2000 nM. With `O=C1c2ccc(NS(=O)(=O)CCO)cc2C2(CCC3(CC3)CC2)CN1c1cccc(CN2CC(F)(F)C2)n1` [Compound 18], the IC50 was < 200 nM.

Turning to `O=C1c2ccc(NS(=O)(=O)CCO)cc2C2(CCC3(CC3)CC2)CN1c1cccc(CN2CCC(F)(F)C2)n1` [Compound 19], the IC50 was < 200 nM. Consider `Cn1cc(N2CC3(CCC4(CC4)CC3)c3cc(NS(=O)(=O)CCO)ccc3C2=O)nc1N1CCC(F)(F)CC1` [Compound 20], for which the IC50 lay in the range of 200 to 2000 nM. Consider `O=C1c2ccc(NS(=O)(=O)CCO)cc2C2(CCC3(CC3)CC2)CN1c1cccc(OC2CC(F)(F)C2)n1` [Compound 24], for which the IC50 lay in the range of 200 to 2000 nM. Consider `CC(c1cccc(N2CC3(CCC4(CC4)CC3)c3cc(NS(=O)(=O)CCO)ccc3C2=O)n1)N1CCC(F)(F)C1` (stereo not drawn) [Compound 30], for which the IC50 lay in the range of 200 to 2000 nM.

Regarding `O=C1c2ccc(NS(=O)(=O)CCO)cc2C2(CCC3(CC3)CC2)CN1c1ccnc(N2CC(F)(F)C2)n1` [Compound 33], the IC50 lay in the range of 200 to 2000 nM.

Take `Cc1cc(N2CC3(CCC4(CC4)CC3)c3cc(NS(=O)(=O)CCO)ccc3C2=O)nc(N2CCC(F)(F)CC2)n1` [Compound 35]: the IC50 was in the range of 200 to 2000 nM.

As for `O=C1c2ccc(NS(=O)(=O)CCO)cc2C2(CCC3(CC3)CC2)CN1c1csc(N2CCC(F)(F)CC2)n1` [Compound 36], the 50% inhibitory concentration (IC50) is > 2000 nM. For the compound `CC1CCN(c2nc(N3CC4(CCC5(CC5)CC4)c4cc(NS(=O)(=O)CCO)ccc4C3=O)ccc2F)CC1` [Compound 37], the IC50 was 200 to 2000 nM. Then `CC1(F)CCN(c2nc(N3CC4(CCC5(CC5)CC4)c4cc(NS(=O)(=O)CCO)ccc4C3=O)ccc2F)CC1` [Compound 40], with < 200 nM. On to `O=C1c2cc(F)c(NS(=O)(=O)CCO)cc2C2(CCC3(CC3)CC2)CN1c1ccnc(N2CCC(F)(F)CC2)n1` [Compound 41], for which the IC50 was in the range of 200 to 2000 nM. As for `O=C1c2ccc(NS(=O)(=O)CCO)cc2C2(CCC3(CC3)CC2)CN1c1ccc(F)c(NC2CC(F)(F)C2)n1` [Compound 42], the figure is < 200 nM; as for `CN1CCN(c2nc(N3CC4(CCC5(CC5)CC4)c4cc(NS(=O)(=O)CCO)ccc4C3=O)ccc2F)CC1` [Compound 46], 200 to 2000 nM; as for `O=C1c2ccc(NS(=O)(=O)CCO)cc2C2(CCC3(CC3)CC2)CN1c1ccc(F)c(N2CCCC(F)(F)CC2)n1` [Compound 47], < 200 nM.

Consider `O=C1c2ccc(NS(=O)(=O)CCO)cc2C2(CCC3(CC3)CC2)CN1c1cccc(NC2CC(F)(F)C2)n1` [Compound 48], for which the IC50 is < 200 nM.

Consider `CN(c1nc(N2CC3(CCC4(CC4)CC3)c3cc(NS(=O)(=O)CCO)ccc3C2=O)ccc1C#N)C1CC(F)(F)C1` [Compound 49], for which the 50% inhibitory concentration (IC50) is < 200 nM. Take `CN(c1nccc(N2CC3(CCC4(CC4)CC3)c3cc(NS(=O)(=O)CCO)ccc3C2=O)n1)C1CCC(F)(F)C1` (stereo not drawn) [Compound 50]: the concentration for half-maximal inhibition (IC50) fell in the range of 200 to 2000 nM. Turning to `Cc1ccc(N2CC3(CCC4(CC4)CC3)c3cc(NS(=O)(=O)CCO)ccc3C2=O)nc1N1CCC(F)(F)CC1` [Compound 52], the IC50 is < 200 nM.

As to `O=C1c2ccc(NS(=O)(=O)CCO)cc2C2(CCC3(CC3)CC2)CN1c1cncc(N2CCC(F)(F)CC2)n1` [Compound 54], the IC50 was < 200 nM.

With `CC(c1nc(N2CC3(CCC4(CC4)CC3)c3cc(NS(=O)(=O)CCO)ccc3C2=O)ccc1C#N)N1CC(F)(F)C1` (stereo not drawn) [Compound 55], the IC50 is > 2000 nM. As for `N#Cc1ccc(N2CC3(CCC4(CC4)CC3)c3cc(NS(=O)(=O)CCO)ccc3C2=O)nc1CN1CC(F)(F)C1` [Compound 57], the IC50 is > 2000 nM. Take `O=C1c2ccc(NS(=O)(=O)CCO)cc2C2(CCC3(CC3)CC2)CN1c1cncc(NC2CC(F)(F)C2)n1` [Compound 58]: the IC50 is 200 to 2000 nM. Consider `N#Cc1ccc(N2CC3(CCC4(CC4)CC3)c3cc(NS(=O)(=O)CCO)cnc3C2=O)nc1N1CCC(F)(F)CC1` [Compound 59], for which the IC50 was in the range of 200 to 2000 nM. As for `O=C1c2ccc(NS(=O)(=O)CCO)cc2C2(CCC3(CC3)CC2)CN1c1ccc2ncn(CC(F)(F)F)c2n1` [Compound 60], the 50% inhibitory concentration (IC50) was 200 to 2000 nM. Consider `O=C1c2ccc(NS(=O)(=O)CCO)cc2C2(CCC3(CC3)CC2)CN1c1ccc(F)c(OC2CC(F)(F)C2)n1` [Compound 61], for which the IC50 fell in the range of 200 to 2000 nM. As for `CC1CN(c2nc(N3CC4(CCC5(CC5)CC4)c4cc(NS(=O)(=O)CCO)ccc4C3=O)ccc2C#N)CCO1` (stereo not drawn) [Compound 63], the figure is < 200 nM.

For `O=C1c2ncc(NS(=O)(=O)CCO)cc2C2(CCC3(CC3)CC2)CN1c1ccnc(N2CCC(F)(F)CC2)n1` [Compound 64], the IC50 was 200 to 2000 nM. For `O=C1c2cc(F)c(NS(=O)(=O)CCO)cc2C2(CCC3(CC3)CC2)CN1c1ccnc(NC2CC(F)(F)C2)n1` [Compound 65], the IC50 lay in the range of 200 to 2000 nM.

As for `O=C1c2ccc(NS(=O)(=O)CCO)cc2C2(CCC3(CC3)CC2)CN1c1ccnc(NC2CCCC2)n1` [Compound 66], the IC50 was < 200 nM. In the case of `O=C1c2ccc(NS(=O)(=O)CCO)cc2C2(CCC(F)(F)CC2)CN1c1ccnc(N2CCC(F)(F)CC2)n1` [Compound 67], the IC50 was in the range of 200 to 2000 nM.

In the case of `O=C1c2ccc(NS(=O)(=O)CCO)nc2C2(CCC3(CC3)CC2)CN1c1ccnc(N2CCC(F)(F)CC2)n1` [Compound 68], the concentration for half-maximal inhibition (IC50) is > 2000 nM.

Regarding `N#Cc1ccc(N2CC3(CCC4(CC4)CC3)c3nc(NS(=O)(=O)CCO)ccc3C2=O)nc1N1CCC(F)(F)CC1` [Compound 70], the IC50 was 200 to 2000 nM. For `Cc1ncc(N2CC3(CCC4(CC4)CC3)c3cc(NS(=O)(=O)CCO)ccc3C2=O)nc1N1CCC(F)(F)CC1` [Compound 73], the IC50 is < 200 nM. For the compound `CC1(C)CCC2(CC1)CN(c1ccnc(NC3CC(F)(F)C3)n1)C(=O)c1ccc(NS(=O)(=O)CCO)cc12` [Compound 74], the IC50 was < 200 nM.

`O=C1c2ccc(NS(=O)(=O)CCO)cc2C2(CCC(=C(F)F)CC2)CN1c1ccnc(N2CCC(F)(F)CC2)n1` (stereo not drawn) [Compound 77]: the half-inhibitory concentration (IC50) fell in the range of 200 to 2000 nM. As for `N#Cc1ccc(N2CC3(CCC(F)(F)CC3)c3cc(NS(=O)(=O)CCO)ccc3C2=O)nc1N1CCC(F)(F)CC1` [Compound 78], the figure is < 200 nM; as for `O=C1c2ccc(NS(=O)(=O)CCO)cc2C2(CCC3(CC3)CC2)CN1c1ccnc(N2CC3CCC2C3)n1` (stereo not drawn) [Compound 82], 200 to 2000 nM. With `O=C1c2ccc(NS(=O)(=O)CCO)cc2C2(CCC3(CC3)CC2)CN1c1ccc(=O)n(CC2CC(F)(F)C2)n1` [Compound 83], the IC50 is 200 to 2000 nM. As to `O=C1c2ccc(NS(=O)(=O)CCO)cc2C2(CCC3(CC3)CC2)CN1c1ccnc(NCCC(F)(F)F)n1` [Compound 84], the IC50 is < 200 nM. Then `N#Cc1ccc(N2CC3(CCC4(CC4)CC3)c3cc(NS(=O)(=O)CCO)ccc3C2=O)nc1NCCC(F)(F)F` [Compound 93], with < 200 nM. As for `CC1(CNc2nccc(N3CC4(CCC5(CC5)CC4)c4cc(NS(=O)(=O)CCO)ccc4C3=O)n2)COC1` [Compound 96], the figure is 200 to 2000 nM.

On to `O=C1c2ccc(NS(=O)(=O)CCO)cc2C2(CCC(F)(F)CC2)CN1c1ccnc(NC2CC(F)(F)C2)n1` [Compound 97], for which the IC50 lay in the range of 200 to 2000 nM.
